Data on six compounds can be found in publication PMC13171625, “Breaking the ‘rule-of-five’ to access bridged bicyclic heteroaromatic bioisosteres” (Nature Synthesis, 2026).

Read-outs that look alike come from different tables or passages of the source.

For data set [1] the following is noted: reference substances used to obtain the regression equation; cited from earlier work.
Data set [2] in a line: LogP Assay (HPLC retention, pH 7.4). The note with it: X-Bridge C18 column (retention-time method).
Data set [3] can be described thus: Metabolic stability in human liver microsomes. The note with it: for Remaining (T60): 60 min; for Remaining (NCF60): 1 h incubation, human liver microsomes, no co-factor (no NADPH); for CLint scaled at 1 μM / half-life at 1 μM / microsomal CLint at 1 μM / remaining at 5 min, 1 μM / remaining at 0.5 h, 1 μM / remaining at 0.75 h, 1 μM: human. (In general: Microsomes from liver hold many membrane-bound enzymes, among them those of drug oxidation.)

For data set [4] the following is noted: human, microsomes.
A further data set is described as follows: in vitro. The note with it: human, microsomes.
A short description of another data set: physchem. The note with it: pH 7.4.
[5] abbreviates: human liver microsomes with NADPH.

Take `CC(=O)c1ccncc1` [4-Acetylpyridine]: the “Log P of reference substance” value in data set [1] is listed as 0.5.
In turn, `COc1ccc(S(=O)(=O)N2CCN(C(=O)OCc3ccccc3)CC2C(=O)NO)cc1` (stereo not shown) [DB04232] came in with a chromatographic logP in data set [2] of 1.43. Further, the “Remaining (T60)” value in data set [3] (setting [5]) stood at 30.6%. Besides, the “Remaining (NCF60)” value in data set [3] was 110.2%. Besides, in data set [3] (liver microsomes), the CLint scaled at 1 μM was determined as 34.6 mL/min/kg; the half-life at 1 μM turned out to be 36 min; the intrinsic clearance (microsomal CLint) at 1 μM turned out to be 38.5 µL/min/mg; the amount remaining at 5 min, 1 μM came out at 82%. In data set [3] (liver microsomes), this compound returned an amount remaining at 0.5 h, 1 μM of 59.3% and a share remaining at 0.75 h, 1 μM of 38.5%.
For `O=C(O)Cc1ccccc1Nc1c(Cl)cccc1Cl` [Diclofenac], the “%Remaining” value in data set [3] (15 min, human liver microsomes with NADPH) stood at 15.6%. Also, in data set [3] (setting [5]), the “Remaining (T60)” value was 0.1%. In addition, the “Remaining (NCF60)” value in data set [3] stood at 96.1%. Also, the “CLint(mic) (microsome intrinsic clearance)” value in data set [3] (human liver microsomes 0.5 mg/mL, 1 μM compound, NADPH) was determined as 232.5 µL/min/mg. In data set [3] (liver microsomes), this compound showed an intrinsic metabolic clearance (CLint scaled) at 1 μM of 209 mL/min/kg; a half-life at 1 μM of 6 min; a fraction remaining at 5 min, 1 μM of 49.4%; an amount remaining at 0.5 h, 1 μM of 2.6%. This compound also displayed an amount remaining at 0.75 h, 1 μM in data set [3] (liver microsomes) of 0.5%.
On to `CCc1ccccc1` [Ethylbenzene], for which the “Log P of reference substance” value in data set [1] is reported as 3.2.
Take `C[C@]12CC[C@H]3[C@@H](CCC4=CC(=O)CC[C@@]43C)[C@@H]1CC[C@@H]2O` [Testosterone]: in data set [4], the “CLint(liver) (hepatic intrinsic clearance)” value is recorded as […]. The “Remaining (T60)” value in data set [3] (setting [5]) is […]. Besides, the “Remaining (NCF60)” value in data set [3] was […]. In addition, the amount remaining at 5 min, 1 μM in data set [3] (microsomes) came out at […].
Regarding `COc1ccc(S(=O)(=O)N2C3CN(C(=O)OCc4ccccc4)CC2(C(=O)NO)C3)cc1` (stereo not shown) [compound 68], the “metabolic stability compared with DB04232” value in data set [4] (1 μM) is given as “at least as metabolically stable as DB04232”. Moreover, in data set [4] (1 h, 1 μM), the “Remaining (NCF60)” value amounted to 86.9% and the “Remaining (T60)” value was 28.3%. In the data set “in vitro”, this compound had a CLint scaled at 1 μM of 34.3 mL/min/kg; a half-life at 1 μM of 36.3 min; a share remaining at 5 min, 1 μM of 71.3%; a share remaining at 0.5 h, 1 μM of 45.9%. In “in vitro”, this compound had a share remaining at 0.75 h, 1 μM of 36.6%. The microsomal CLint at 1 μM in data set [3] (microsomes) is 38.1 µL/min/mg. For the same compound, in the data set “physchem”, the chromatographic logP was found to be 0.946.

Usually chromatographic logP stands for a lipophilicity value derived from retention on a column. Low values mean lower lipophilicity, high ones higher lipophilicity. In general, CLint scaled refers to the rate of metabolic loss divided by the concentration. A high value points to rapid turnover. The half-life is the time needed for the level to fall by half in the phase considered. A high value points to slow loss. A word on the microsomal CLint: it is a measure of how fast metabolising enzymes remove a compound, apart from limits set by blood flow. In general, amount remaining refers to what is left of the initial amount, in per cent.
